{
  "source": "ChEMBL document CHEMBL3286208",
  "about": "“Pyranocoumarins from Glehnia littoralis inhibit the LPS-induced NO production in macrophage RAW 264.7 cells” (Bioorg Med Chem Lett, 2014)",
  "key": {"RAW264.7": {"system": "RAW264.7", "test": "Inhibition of LPS-induced NO production in mouse RAW264.7 cells after 24 hrs by Griess method", "assay_type": "functional, cell-based", "conditions": "RAW264.7, 24 h"}, "[1]": {"test": "Cytotoxicity against mouse RAW264.7 cells assessed as cell viability at 0.5 to 50 uM", "assay_type": "cell-based", "conditions": "read-out: Activity"}},
  "data": [
    {"smiles": "CC(C)CC(=O)O[C@H]1c2c(ccc3ccc(=O)oc23)OC(C)(C)[C@H]1OC(=O)CC(C)C", "values": [
      {"measurement": "IC50", "setting": "RAW264.7", "result": 7.4, "unit": "µM"},
      {"measurement": "viability at up to 50 µM", "setting": "[1]", "result": "> 90", "unit": "%"}
    ]},
    {"smiles": "N=C(N)NN", "note": "[PIMAGEDINE]", "values": [
      {"measurement": "IC50", "setting": "RAW264.7", "result": 16.9, "unit": "µM"}
    ]},
    {"smiles": "CC(C)C(=O)O[C@H]1c2c(ccc3ccc(=O)oc23)OC(C)(C)[C@H]1OC(=O)C(C)C", "values": [
      {"measurement": "IC50", "setting": "RAW264.7", "result": 28.2, "unit": "µM"},
      {"measurement": "viability at up to 50 µM", "setting": "[1]", "result": "> 90", "unit": "%"}
    ]},
    {"smiles": "CC(=O)O[C@H]1c2c(ccc3ccc(=O)oc23)OC(C)(C)[C@H]1OC(=O)C=C(C)C", "values": [
      {"measurement": "IC50", "setting": "RAW264.7", "result": 44.3, "unit": "µM"},
      {"measurement": "viability at up to 50 µM", "setting": "[1]", "result": "> 90", "unit": "%"}
    ]},
    {"smiles": "CC(C)=CC(=O)O[C@H]1c2c(ccc3ccc(=O)oc23)OC(C)(C)[C@H]1OC(=O)C=C(C)C", "values": [
      {"measurement": "IC50", "setting": "RAW264.7", "result": 9.8, "unit": "µM"},
      {"measurement": "viability at up to 50 µM", "setting": "[1]", "result": "> 90", "unit": "%"}
    ]},
    {"smiles": "CC(=O)O[C@H]1c2c(ccc3ccc(=O)oc23)OC(C)(C)[C@H]1OC(=O)CC(C)C", "values": [
      {"measurement": "IC50", "setting": "RAW264.7", "result": 18.8, "unit": "µM"},
      {"measurement": "viability at up to 50 µM", "setting": "[1]", "result": "> 90", "unit": "%"}
    ]},
    {"smiles": "CC(C)=CC(=O)O[C@H]1c2c(ccc3ccc(=O)oc23)OC(C)(C)[C@H]1OC(=O)CC(C)C", "values": [
      {"measurement": "IC50", "setting": "RAW264.7", "result": 9.9, "unit": "µM"},
      {"measurement": "viability at up to 50 µM", "setting": "[1]", "result": "> 90", "unit": "%"}
    ]}
  ]
}
